Reference: patent US4399126A, “Modulators of the complement system” (American Cyanamid Company, priority 1982, dated 1983)
Where two headings read alike, the source gives them in different places.

Key:
activated human C1 = target: T1, activated human C1 (Homo sapiens, UniProt P09871); assay: Test Code 026 (C1 inhibitor); assay type: biochemical; details: serial twofold dilution assay; higher well number indicates higher activity
T1 sequence (P09871 16-437 limits assumed): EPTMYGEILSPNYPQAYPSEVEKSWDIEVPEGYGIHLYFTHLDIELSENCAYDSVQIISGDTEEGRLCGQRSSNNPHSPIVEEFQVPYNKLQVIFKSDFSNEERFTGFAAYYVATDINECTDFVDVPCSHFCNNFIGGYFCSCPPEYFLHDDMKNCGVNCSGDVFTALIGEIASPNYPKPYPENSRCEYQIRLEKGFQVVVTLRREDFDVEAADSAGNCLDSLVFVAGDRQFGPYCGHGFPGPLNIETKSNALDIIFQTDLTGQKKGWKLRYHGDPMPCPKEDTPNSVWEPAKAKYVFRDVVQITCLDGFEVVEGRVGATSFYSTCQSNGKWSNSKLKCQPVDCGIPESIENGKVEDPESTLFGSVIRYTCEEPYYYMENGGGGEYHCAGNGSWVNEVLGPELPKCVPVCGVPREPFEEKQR
T1 sequence (P09871 438-688 limits assumed): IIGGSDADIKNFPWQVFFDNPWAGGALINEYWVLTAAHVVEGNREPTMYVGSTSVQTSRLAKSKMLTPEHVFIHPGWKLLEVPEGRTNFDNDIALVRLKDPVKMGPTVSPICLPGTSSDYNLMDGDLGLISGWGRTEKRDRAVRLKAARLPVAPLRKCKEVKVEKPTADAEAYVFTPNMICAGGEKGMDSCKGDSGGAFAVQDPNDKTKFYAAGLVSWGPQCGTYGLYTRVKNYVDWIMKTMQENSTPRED

[1] = tested on: late components of human complement (C3-C9); assay: Test Code 035 (C3-C9 inhibitor), lysis of EAC 142; assay type: biochemical; details: serial twofold dilution assay; higher well number indicates higher activity
[2] = tested on: complement activity of sera; assay: Guinea Pig Intraperitoneal Test (GPIP); assay type: in vivo; details: Cavia porcellus, ip, 200 mg/kg i.p., capillary complement assay
Method: Percent inhibition is calculated by comparison with simultaneous controls.

[3] = blood 2 hours after injection, read-out: in vivo Activity Guinea Pig % Inhibition Intraperitoneal, 2 hours
[4] = blood 6 hours after injection, read-out: in vivo Activity Guinea Pig % Inhibition Intraperitoneal, 6 hours
[5] = blood 24 hours after injection, read-out: in vivo Activity Guinea Pig % Inhibition Intraperitoneal, 24 hours

Structure (SMILES) | in vitro Activity Cl 026 Wells (activated human C1) | in vitro Activity C-Late 035 Wells [1] | inhibition at 200 mg/kg [2, 3] | inhibition at 200 mg/kg [2, 4] | inhibition at 200 mg/kg [2, 5]
O=C(CCC(=O)Nc1ccc(S[C@@H]2O[C@H](COS(=O)(=O)O)[C@@H](O[C@H]3O[C@H](COS(=O)(=O)O)[C@@H](OS(=O)(=O)O)[C@H](OS(=O)(=O)O)[C@H]3OS(=O)(=O)O)[C@H](OS(=O)(=O)O)[C@H]2OS(=O)(=O)O)cc1)Nc1ccc(S[C@@H]2O[C@H](COS(=O)(=O)O)[C@@H](O[C@H]3O[C@H](COS(=O)(=O)O)[C@@H](OS(=O)(=O)O)[C@H](OS(=O)(=O)O)[C@H]3OS(=O)(=O)O)[C@H](OS(=O)(=O)O)[C@H]2OS(=O)(=O)O)cc1 [Tetradecasodium N,N'--bis[4-[2,3,6-tri-O--sulfo-4-O--(2,3,4,6-tetra-O--sulfo-α-D-glucopyranosyl)-β -D-glucopyranosylthio]phenyl]butanediamide] | 10.2 Wells | 1.4 Wells | – | – | –
O=C(CCCCCCCCC(=O)Nc1ccc(S[C@@H]2O[C@H](COS(=O)(=O)O)[C@@H](O[C@H]3O[C@H](COS(=O)(=O)O)[C@@H](OS(=O)(=O)O)[C@H](OS(=O)(=O)O)[C@H]3OS(=O)(=O)O)[C@H](OS(=O)(=O)O)[C@H]2OS(=O)(=O)O)cc1)Nc1ccc(S[C@@H]2O[C@H](COS(=O)(=O)O)[C@@H](O[C@H]3O[C@H](COS(=O)(=O)O)[C@@H](OS(=O)(=O)O)[C@H](OS(=O)(=O)O)[C@H]3OS(=O)(=O)O)[C@H](OS(=O)(=O)O)[C@H]2OS(=O)(=O)O)cc1.[Na].[Na].[Na].[Na].[Na].[Na].[Na].[Na].[Na].[Na].[Na].[Na].[Na].[Na] [tetradecasodium N,N'-bis[4-[2,3,6-tri-O-sulfo-4-O-(2,3,4,6-tetra-O-sulfo-α-D-glucopyranosyl)-β-D-glucopyranosylthio]phenyl]decanediamide] | 5.0 Wells | 0.8 Wells | 88% | 87% | 75%
O=C(CCCCC(=O)Nc1ccc(S[C@@H]2O[C@H](COS(=O)(=O)O)[C@@H](O[C@H]3O[C@H](COS(=O)(=O)O)[C@@H](OS(=O)(=O)O)[C@H](OS(=O)(=O)O)[C@H]3OS(=O)(=O)O)[C@H](OS(=O)(=O)O)[C@H]2OS(=O)(=O)O)cc1)Nc1ccc(S[C@@H]2O[C@H](COS(=O)(=O)O)[C@@H](O[C@H]3O[C@H](COS(=O)(=O)O)[C@@H](OS(=O)(=O)O)[C@H](OS(=O)(=O)O)[C@H]3OS(=O)(=O)O)[C@H](OS(=O)(=O)O)[C@H]2OS(=O)(=O)O)cc1.[Na].[Na].[Na].[Na].[Na].[Na].[Na].[Na].[Na].[Na].[Na].[Na].[Na].[Na] [tetradecasodium N,N'-bis[4-[2,3,6-tri-O-sulfo-4-O-(2,3,4,6-tetra-O-sulfo-α-D-glucopyranosyl)-β-D-glucopyranosylthio]phenyl]hexanediamide] | 10.5 Wells | 1.0 Wells | 90% | 85% | 76%
O=C(CCCCCC(=O)Nc1ccc(S[C@@H]2O[C@H](COS(=O)(=O)O)[C@@H](O[C@H]3O[C@H](COS(=O)(=O)O)[C@@H](OS(=O)(=O)O)[C@H](OS(=O)(=O)O)[C@H]3OS(=O)(=O)O)[C@H](OS(=O)(=O)O)[C@H]2OS(=O)(=O)O)cc1)Nc1ccc(S[C@@H]2O[C@H](COS(=O)(=O)O)[C@@H](O[C@H]3O[C@H](COS(=O)(=O)O)[C@@H](OS(=O)(=O)O)[C@H](OS(=O)(=O)O)[C@H]3OS(=O)(=O)O)[C@H](OS(=O)(=O)O)[C@H]2OS(=O)(=O)O)cc1.[Na].[Na].[Na].[Na].[Na].[Na].[Na].[Na].[Na].[Na].[Na].[Na].[Na].[Na] [tetradecasodium N,N'-bis[4-[2,3,6-tri-O-sulfo-4-O-(2,3,4,6-tetra-O-sulfo-α-D-glucopyranosyl)-β-D-glucopyranosylthio]phenyl]heptanediamide] | 10.7 Wells | 1.0 Wells | 87% | 87% | 50%
O=C(CC(=O)Nc1ccc(S[C@@H]2O[C@H](COS(=O)(=O)O)[C@@H](O[C@H]3O[C@H](COS(=O)(=O)O)[C@@H](OS(=O)(=O)O)[C@H](OS(=O)(=O)O)[C@H]3OS(=O)(=O)O)[C@H](OS(=O)(=O)O)[C@H]2OS(=O)(=O)O)cc1)Nc1ccc(S[C@@H]2O[C@H](COS(=O)(=O)O)[C@@H](O[C@H]3O[C@H](COS(=O)(=O)O)[C@@H](OS(=O)(=O)O)[C@H](OS(=O)(=O)O)[C@H]3OS(=O)(=O)O)[C@H](OS(=O)(=O)O)[C@H]2OS(=O)(=O)O)cc1.[Na].[Na].[Na].[Na].[Na].[Na].[Na].[Na].[Na].[Na].[Na].[Na].[Na].[Na] [tetradecasodium N,N'-bis[4-[2,3,6-tri-O-sulfo-4-O-(2,3,4,6-tetra-O-sulfo-α-D-glucopyranosyl)-β-D-glucopyranosylthio]phenyl]propanediamide] | 9.9 Wells | 1.6 Wells | 90% | 90% | 47%
O=C(CCCCCCCCCCCCC(=O)Nc1ccc(S[C@@H]2O[C@H](COS(=O)(=O)O)[C@@H](O[C@H]3O[C@H](COS(=O)(=O)O)[C@@H](OS(=O)(=O)O)[C@H](OS(=O)(=O)O)[C@H]3OS(=O)(=O)O)[C@H](OS(=O)(=O)O)[C@H]2OS(=O)(=O)O)cc1)Nc1ccc(S[C@@H]2O[C@H](COS(=O)(=O)O)[C@@H](O[C@H]3O[C@H](COS(=O)(=O)O)[C@@H](OS(=O)(=O)O)[C@H](OS(=O)(=O)O)[C@H]3OS(=O)(=O)O)[C@H](OS(=O)(=O)O)[C@H]2OS(=O)(=O)O)cc1.[Na].[Na].[Na].[Na].[Na].[Na].[Na].[Na].[Na].[Na].[Na].[Na].[Na].[Na] [tetradecasodium N,N'-bis[4-[2,3,6-tri-O-sulfo-4-O-(2,3,4,6-tetra-O-sulfo-α-D-glucopyranosyl)-β-D-glucopyranosylthio]phenyl]tetradecanediamide] | 7 Wells | 3.0 Wells | – | – | –
O=C(CCCCCCC(=O)Nc1ccc(S[C@@H]2O[C@H](COS(=O)(=O)O)[C@@H](O[C@H]3O[C@H](COS(=O)(=O)O)[C@@H](OS(=O)(=O)O)[C@H](OS(=O)(=O)O)[C@H]3OS(=O)(=O)O)[C@H](OS(=O)(=O)O)[C@H]2OS(=O)(=O)O)cc1)Nc1ccc(S[C@@H]2O[C@H](COS(=O)(=O)O)[C@@H](O[C@H]3O[C@H](COS(=O)(=O)O)[C@@H](OS(=O)(=O)O)[C@H](OS(=O)(=O)O)[C@H]3OS(=O)(=O)O)[C@H](OS(=O)(=O)O)[C@H]2OS(=O)(=O)O)cc1.[Na].[Na].[Na].[Na].[Na].[Na].[Na].[Na].[Na].[Na].[Na].[Na].[Na].[Na] [Tetradecasodium N,N'-bis[4-[2,3,6-tri-O-sulfo-4-O-(2,3,4,6-tetra-O-sulfo-α-D-glucopyranosyl)-β-D-glucopyranosylthio]phenyl]octanediamide] | 9 Wells | 1.5 Wells | 87% | 71% | 44%
O=C(CCCC(=O)Nc1ccc(S[C@@H]2O[C@H](COS(=O)(=O)O)[C@@H](O[C@@H]3O[C@H](COS(=O)(=O)O)[C@@H](OS(=O)(=O)O)[C@H](OS(=O)(=O)O)[C@H]3OS(=O)(=O)O)[C@H](OS(=O)(=O)O)[C@H]2OS(=O)(=O)O)cc1)Nc1ccc(S[C@@H]2O[C@H](COS(=O)(=O)O)[C@@H](O[C@@H]3O[C@H](COS(=O)(=O)O)[C@@H](OS(=O)(=O)O)[C@H](OS(=O)(=O)O)[C@H]3OS(=O)(=O)O)[C@H](OS(=O)(=O)O)[C@H]2OS(=O)(=O)O)cc1.[Na].[Na].[Na].[Na].[Na].[Na].[Na].[Na].[Na].[Na].[Na].[Na].[Na].[Na] [tetradecasodium N,N'-bis[4-[2,3,6-tri-O-sulfo-4-O-(2,3,4,6-tetra-O-sulfo-β-D-glucopyranosyl)-β-D-glucopyranosylthio]phenyl]pentanediamide] | 12 Wells | 2.0 Wells | – | – | –
